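Exposure lasted 48 hours, with cells grown in 96-well plates and compounds tested at five concentrations. Definition used: TGI = concentration required for complete inhibition of growth.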
These molecules were tested on RXF 393 renal (assay: inhibition of tumour cell growth, NCI panel, 48 h).

| SMILES | TGI [µM] |
| --- | --- |
| O=S(/C=C/C=C/S(=O)(=O)c1ccccc1)c1ccccc1 (centres undefined) | 3.31 |
| CC(C)CSCC1OC(n2cnc3c(N)nccc32)C(O)C1O (centres undefined) | > 100 |

These molecules were tested on SW-620 colon (assay: inhibition of tumour cell growth, NCI panel, 48 h).

| SMILES | TGI [µM] |
| --- | --- |
| ClC1=C(Cl)C(Cl)(Cl)SS1 | 5.82 |
| O=S(/C=C/C=C/S(=O)(=O)c1ccccc1)c1ccccc1 (centres undefined) | 2.67 |
| CC(C)CSCC1OC(n2cnc3c(N)nccc32)C(O)C1O (centres undefined) | > 100 |

The molecules below were run on TK-10 renal (assay: inhibition of tumour cell growth, NCI panel, 48 h).

| SMILES | TGI [µM] |
| --- | --- |
| ClC1=C(Cl)C(Cl)(Cl)SS1 | > 10 |
| O=S(/C=C/C=C/S(=O)(=O)c1ccccc1)c1ccccc1 (centres undefined) | 6.08 |
| CC(C)CSCC1OC(n2cnc3c(N)nccc32)C(O)C1O (centres undefined) | > 100 |

The molecules below were run on A549 NSCLC (assay: inhibition of tumour cell growth, NCI panel, 48 h).

| SMILES | TGI [µM] |
| --- | --- |
| ClC1=C(Cl)C(Cl)(Cl)SS1 | > 10 |
| O=S(/C=C/C=C/S(=O)(=O)c1ccccc1)c1ccccc1 (centres undefined) | > 10 |
| CC(C)CSCC1OC(n2cnc3c(N)nccc32)C(O)C1O (centres undefined) | > 100 |

These molecules were tested on OVCAR-5 ovarian (assay: inhibition of tumour cell growth, NCI panel, 48 h).

| SMILES | TGI [µM] |
| --- | --- |
| ClC1=C(Cl)C(Cl)(Cl)SS1 | > 10 |
| O=S(/C=C/C=C/S(=O)(=O)c1ccccc1)c1ccccc1 (centres undefined) | > 10 |
| CC(C)CSCC1OC(n2cnc3c(N)nccc32)C(O)C1O (centres undefined) | > 100 |

What follows are molecules tested on MDA-MB-231 breast (assay: inhibition of tumour cell growth, NCI panel, 48 h).

| SMILES | TGI [µM] |
| --- | --- |
| ClC1=C(Cl)C(Cl)(Cl)SS1 | > 10 |
| O=S(/C=C/C=C/S(=O)(=O)c1ccccc1)c1ccccc1 (centres undefined) | 8.8 |
| CC(C)CSCC1OC(n2cnc3c(N)nccc32)C(O)C1O (centres undefined) | > 100 |

These molecules were tested on HCC-2998 colon (assay: inhibition of tumour cell growth, NCI panel, 48 h).

| SMILES | TGI [µM] |
| --- | --- |
| ClC1=C(Cl)C(Cl)(Cl)SS1 | > 10 |
| O=S(/C=C/C=C/S(=O)(=O)c1ccccc1)c1ccccc1 (centres undefined) | > 10 |
| CC(C)CSCC1OC(n2cnc3c(N)nccc32)C(O)C1O (centres undefined) | > 100 |

Each molecule was assayed on HT29 colon (assay: inhibition of tumour cell growth, NCI panel, 48 h).

| SMILES | TGI [µM] |
| --- | --- |
| ClC1=C(Cl)C(Cl)(Cl)SS1 | > 10 |
| O=S(/C=C/C=C/S(=O)(=O)c1ccccc1)c1ccccc1 (centres undefined) | > 10 |
| CC(C)CSCC1OC(n2cnc3c(N)nccc32)C(O)C1O (centres undefined) | > 100 |

What follows are molecules tested on BT-549 breast (assay: inhibition of tumour cell growth, NCI panel, 48 h).

| SMILES | TGI [µM] |
| --- | --- |
| ClC1=C(Cl)C(Cl)(Cl)SS1 | > 10 |
| O=S(/C=C/C=C/S(=O)(=O)c1ccccc1)c1ccccc1 (centres undefined) | > 10 |
| CC(C)CSCC1OC(n2cnc3c(N)nccc32)C(O)C1O (centres undefined) | > 100 |

These molecules were tested on HL-60(TB) leukemia (assay: inhibition of tumour cell growth, NCI panel, 48 h).

| SMILES | TGI [µM] |
| --- | --- |
| ClC1=C(Cl)C(Cl)(Cl)SS1 | > 7.32 |
| O=S(/C=C/C=C/S(=O)(=O)c1ccccc1)c1ccccc1 (centres undefined) | 0.909 |
| CC(C)CSCC1OC(n2cnc3c(N)nccc32)C(O)C1O (centres undefined) | > 100 |

Each molecule was assayed on NCI-H460 lung (assay: inhibition of tumour cell growth, NCI panel, 48 h).

| SMILES | TGI [µM] |
| --- | --- |
| ClC1=C(Cl)C(Cl)(Cl)SS1 | > 10 |
| O=S(/C=C/C=C/S(=O)(=O)c1ccccc1)c1ccccc1 (centres undefined) | > 10 |
| CC(C)CSCC1OC(n2cnc3c(N)nccc32)C(O)C1O (centres undefined) | > 100 |

Each molecule was assayed on NCI-H522 lung (assay: inhibition of tumour cell growth, NCI panel, 48 h).

| SMILES | TGI [µM] |
| --- | --- |
| ClC1=C(Cl)C(Cl)(Cl)SS1 | > 6.85 |
| O=S(/C=C/C=C/S(=O)(=O)c1ccccc1)c1ccccc1 (centres undefined) | 3.17 |
| CC(C)CSCC1OC(n2cnc3c(N)nccc32)C(O)C1O (centres undefined) | > 100 |

The molecules below were run on MOLT-4 leukemia (assay: inhibition of tumour cell growth, NCI panel, 48 h).

| SMILES | TGI [µM] |
| --- | --- |
| ClC1=C(Cl)C(Cl)(Cl)SS1 | 3.61 |
| O=S(/C=C/C=C/S(=O)(=O)c1ccccc1)c1ccccc1 (centres undefined) | 4.11 |
| CC(C)CSCC1OC(n2cnc3c(N)nccc32)C(O)C1O (centres undefined) | > 100 |

These molecules were tested on CAKI-1 renal (assay: inhibition of tumour cell growth, NCI panel, 48 h).

| SMILES | TGI [µM] |
| --- | --- |
| ClC1=C(Cl)C(Cl)(Cl)SS1 | 6.76 |
| O=S(/C=C/C=C/S(=O)(=O)c1ccccc1)c1ccccc1 (centres undefined) | 3.43 |
| CC(C)CSCC1OC(n2cnc3c(N)nccc32)C(O)C1O (centres undefined) | > 100 |

The molecules below were run on HCT-15 colon (assay: inhibition of tumour cell growth, NCI panel, 48 h).

| SMILES | TGI [µM] |
| --- | --- |
| ClC1=C(Cl)C(Cl)(Cl)SS1 | > 10 |
| O=S(/C=C/C=C/S(=O)(=O)c1ccccc1)c1ccccc1 (centres undefined) | 3.97 |
| CC(C)CSCC1OC(n2cnc3c(N)nccc32)C(O)C1O (centres undefined) | > 100 |

The molecules below were run on MDA-N (assay: inhibition of tumour cell growth, NCI panel, 48 h).

| SMILES | TGI [µM] |
| --- | --- |
| ClC1=C(Cl)C(Cl)(Cl)SS1 | > 10 |
| O=S(/C=C/C=C/S(=O)(=O)c1ccccc1)c1ccccc1 (centres undefined) | > 5.51 |
| CC(C)CSCC1OC(n2cnc3c(N)nccc32)C(O)C1O (centres undefined) | > 100 |

What follows are molecules tested on SR leukemia (assay: inhibition of tumour cell growth, NCI panel, 48 h).

| SMILES | TGI [µM] |
| --- | --- |
| ClC1=C(Cl)C(Cl)(Cl)SS1 | 5.35 |
| O=S(/C=C/C=C/S(=O)(=O)c1ccccc1)c1ccccc1 (centres undefined) | 3.07 |
| CC(C)CSCC1OC(n2cnc3c(N)nccc32)C(O)C1O (centres undefined) | > 100 |

The molecules below were run on OVCAR-4 ovarian (assay: inhibition of tumour cell growth, NCI panel, 48 h).

| SMILES | TGI [µM] |
| --- | --- |
| ClC1=C(Cl)C(Cl)(Cl)SS1 | 9.81 |
| O=S(/C=C/C=C/S(=O)(=O)c1ccccc1)c1ccccc1 (centres undefined) | 4.33 |
| CC(C)CSCC1OC(n2cnc3c(N)nccc32)C(O)C1O (centres undefined) | > 100 |

What follows are molecules tested on UACC-257 melanoma (assay: inhibition of tumour cell growth, NCI panel, 48 h).

| SMILES | TGI [µM] |
| --- | --- |
| ClC1=C(Cl)C(Cl)(Cl)SS1 | > 7.95 |
| O=S(/C=C/C=C/S(=O)(=O)c1ccccc1)c1ccccc1 (centres undefined) | 3.77 |
| CC(C)CSCC1OC(n2cnc3c(N)nccc32)C(O)C1O (centres undefined) | > 100 |

The molecules below were run on SK-OV-3 ovarian (assay: inhibition of tumour cell growth, NCI panel, 48 h).

| SMILES | TGI [µM] |
| --- | --- |
| ClC1=C(Cl)C(Cl)(Cl)SS1 | > 10 |
| O=S(/C=C/C=C/S(=O)(=O)c1ccccc1)c1ccccc1 (centres undefined) | > 10 |
| CC(C)CSCC1OC(n2cnc3c(N)nccc32)C(O)C1O (centres undefined) | > 100 |

What follows are molecules tested on SNB-19 CNS (assay: inhibition of tumour cell growth, NCI panel, 48 h).

| SMILES | TGI [µM] |
| --- | --- |
| ClC1=C(Cl)C(Cl)(Cl)SS1 | > 10 |
| O=S(/C=C/C=C/S(=O)(=O)c1ccccc1)c1ccccc1 (centres undefined) | > 10 |
| CC(C)CSCC1OC(n2cnc3c(N)nccc32)C(O)C1O (centres undefined) | > 100 |

The molecules below were run on OVCAR-8 ovarian (assay: inhibition of tumour cell growth, NCI panel, 48 h).

| SMILES | TGI [µM] |
| --- | --- |
| ClC1=C(Cl)C(Cl)(Cl)SS1 | > 10 |
| O=S(/C=C/C=C/S(=O)(=O)c1ccccc1)c1ccccc1 (centres undefined) | 3.7 |
| CC(C)CSCC1OC(n2cnc3c(N)nccc32)C(O)C1O (centres undefined) | > 100 |

The molecules below were run on SN12C renal (assay: inhibition of tumour cell growth, NCI panel, 48 h).

| SMILES | TGI [µM] |
| --- | --- |
| ClC1=C(Cl)C(Cl)(Cl)SS1 | > 10 |
| O=S(/C=C/C=C/S(=O)(=O)c1ccccc1)c1ccccc1 (centres undefined) | 3.94 |
| CC(C)CSCC1OC(n2cnc3c(N)nccc32)C(O)C1O (centres undefined) | > 100 |

What follows are molecules tested on UO-31 renal (assay: inhibition of tumour cell growth, NCI panel, 48 h).

| SMILES | TGI [µM] |
| --- | --- |
| ClC1=C(Cl)C(Cl)(Cl)SS1 | > 6.06 |
| O=S(/C=C/C=C/S(=O)(=O)c1ccccc1)c1ccccc1 (centres undefined) | 5.64 |
| CC(C)CSCC1OC(n2cnc3c(N)nccc32)C(O)C1O (centres undefined) | > 100 |

These molecules were tested on NCI-H226 lung (assay: inhibition of tumour cell growth, NCI panel, 48 h).

| SMILES | TGI [µM] |
| --- | --- |
| ClC1=C(Cl)C(Cl)(Cl)SS1 | > 10 |
| O=S(/C=C/C=C/S(=O)(=O)c1ccccc1)c1ccccc1 (centres undefined) | > 10 |
| CC(C)CSCC1OC(n2cnc3c(N)nccc32)C(O)C1O (centres undefined) | > 100 |

What follows are molecules tested on MCF7 breast (assay: inhibition of tumour cell growth, NCI panel, 48 h).

| SMILES | TGI [µM] |
| --- | --- |
| ClC1=C(Cl)C(Cl)(Cl)SS1 | > 10 |
| O=S(/C=C/C=C/S(=O)(=O)c1ccccc1)c1ccccc1 (centres undefined) | 3.17 |
| CC(C)CSCC1OC(n2cnc3c(N)nccc32)C(O)C1O (centres undefined) | > 100 |

What follows are molecules tested on MALME-3M melanoma (assay: inhibition of tumour cell growth, NCI panel, 48 h).

| SMILES | TGI [µM] |
| --- | --- |
| ClC1=C(Cl)C(Cl)(Cl)SS1 | > 6.61 |
| O=S(/C=C/C=C/S(=O)(=O)c1ccccc1)c1ccccc1 (centres undefined) | 4.22 |
| CC(C)CSCC1OC(n2cnc3c(N)nccc32)C(O)C1O (centres undefined) | > 100 |

What follows are molecules tested on SK-MEL-28 melanoma (assay: inhibition of tumour cell growth, NCI panel, 48 h).

| SMILES | TGI [µM] |
| --- | --- |
| ClC1=C(Cl)C(Cl)(Cl)SS1 | > 10 |
| O=S(/C=C/C=C/S(=O)(=O)c1ccccc1)c1ccccc1 (centres undefined) | 4.35 |
| CC(C)CSCC1OC(n2cnc3c(N)nccc32)C(O)C1O (centres undefined) | > 100 |

Each molecule was assayed on ACHN renal (assay: inhibition of tumour cell growth, NCI panel, 48 h).

| SMILES | TGI [µM] |
| --- | --- |
| ClC1=C(Cl)C(Cl)(Cl)SS1 | > 10 |
| O=S(/C=C/C=C/S(=O)(=O)c1ccccc1)c1ccccc1 (centres undefined) | > 9.31 |
| CC(C)CSCC1OC(n2cnc3c(N)nccc32)C(O)C1O (centres undefined) | > 100 |

The molecules below were run on 786-0 renal (assay: inhibition of tumour cell growth, NCI panel, 48 h).

| SMILES | TGI [µM] |
| --- | --- |
| ClC1=C(Cl)C(Cl)(Cl)SS1 | > 6.03 |
| O=S(/C=C/C=C/S(=O)(=O)c1ccccc1)c1ccccc1 (centres undefined) | 1.61 |
| CC(C)CSCC1OC(n2cnc3c(N)nccc32)C(O)C1O (centres undefined) | > 100 |
